Data reported in PubChem BioAssay AID1259407 (Chemical Carcinogenesis Research Information System (CCRIS), 2018).
Activity calls are given as the source filed them. How the calls were made is not given here.

Tested on: CCRIS mutagenicity, Ames/micronucleus/aberration tests
Assay: CCRIS mutagenicity studies
[1] = Test System: AMES SALMONELLA TYPHIMURIUM, Strain/Indicator: TA98, Metabolic Activation: NONE, Method: PREINCUBATION
[2] = Test System: AMES SALMONELLA TYPHIMURIUM, Strain/Indicator: TA100, Metabolic Activation: NONE, Method: PREINCUBATION
[3] = Test System: AMES SALMONELLA TYPHIMURIUM, Strain/Indicator: TA98, Metabolic Activation: NONE, Method: STANDARD PLATE
[4] = Test System: AMES SALMONELLA TYPHIMURIUM, Strain/Indicator: TA100, Metabolic Activation: NONE, Method: STANDARD PLATE
[5] = Test System: AMES SALMONELLA TYPHIMURIUM, Strain/Indicator: TA98, Metabolic Activation: HAMSTER, LIVER, S-9, Method: PREINCUBATION (PRIVAL METHOD)

Measured: mutagenic call

O=[N+]([O-])c1c(O)c(Cl)cc(Cl)c1Cl
inactive: Test System: AMES SALMONELLA TYPHIMURIUM, Strain/Indicator: TA97, Metabolic Activation: HAMSTER, LIVER, S-9, AROCLOR 1254 (5 OR 10%), Method: PREINCUBATION inactive; negative | Test System: AMES SALMONELLA TYPHIMURIUM, Strain/Indicator: TA97, Metabolic Activation: HAMSTER, LIVER, S-9, AROCLOR 1254 (30%), Method: PREINCUBATION inactive; negative | Test System: AMES SALMONELLA TYPHIMURIUM, Strain/Indicator: TA97, Metabolic Activation: NONE, Method: PREINCUBATION inactive; negative | Test System: AMES SALMONELLA TYPHIMURIUM, Strain/Indicator: TA97, Metabolic Activation: RAT, LIVER, S-9, AROCLOR 1254 (10%), Method: PREINCUBATION inactive; negative | Test System: AMES SALMONELLA TYPHIMURIUM, Strain/Indicator: TA97, Metabolic Activation: RAT, LIVER, S-9, AROCLOR 1254 (30%), Method: PREINCUBATION inactive; negative | Test System: AMES SALMONELLA TYPHIMURIUM, Strain/Indicator: TA98, Metabolic Activation: HAMSTER, LIVER, S-9, AROCLOR 1254 (10%), Method: PREINCUBATION inactive; negative | Test System: AMES SALMONELLA TYPHIMURIUM, Strain/Indicator: TA98, Metabolic Activation: HAMSTER, LIVER, S-9, AROCLOR 1254 (30%), Method: PREINCUBATION inactive; negative | [1] inactive; negative | Test System: AMES SALMONELLA TYPHIMURIUM, Strain/Indicator: TA98, Metabolic Activation: RAT, LIVER, S-9, AROCLOR 1254 (10%), Method: PREINCUBATION inactive; negative | Test System: AMES SALMONELLA TYPHIMURIUM, Strain/Indicator: TA98, Metabolic Activation: RAT, LIVER, S-9, AROCLOR 1254 (30%), Method: PREINCUBATION inactive; negative | Test System: AMES SALMONELLA TYPHIMURIUM, Strain/Indicator: TA100, Metabolic Activation: HAMSTER, LIVER, S-9, AROCLOR 1254 (10%), Method: PREINCUBATION inactive; negative | Test System: AMES SALMONELLA TYPHIMURIUM, Strain/Indicator: TA100, Metabolic Activation: HAMSTER, LIVER, S-9, AROCLOR 1254 (30%), Method: PREINCUBATION inactive; negative | [2] inactive; negative | Test System: AMES SALMONELLA TYPHIMURIUM, Strain/Indicator: TA100, Metabolic Activation: RAT, LIVER, S-9, AROCLOR 1254 (10%), Method: PREINCUBATION inactive; negative | Test System: AMES SALMONELLA TYPHIMURIUM, Strain/Indicator: TA100, Metabolic Activation: RAT, LIVER, S-9, AROCLOR 1254 (30%), Method: PREINCUBATION inactive; negative | Test System: AMES SALMONELLA TYPHIMURIUM, Strain/Indicator: TA1535, Metabolic Activation: HAMSTER, LIVER, S-9, AROCLOR 1254 (10%), Method: PREINCUBATION inactive; negative | Test System: AMES SALMONELLA TYPHIMURIUM, Strain/Indicator: TA1535, Metabolic Activation: HAMSTER, LIVER, S-9, AROCLOR 1254 (30%), Method: PREINCUBATION inactive; negative | Test System: AMES SALMONELLA TYPHIMURIUM, Strain/Indicator: TA1535, Metabolic Activation: NONE, Method: PREINCUBATION inactive; negative | Test System: AMES SALMONELLA TYPHIMURIUM, Strain/Indicator: TA1535, Metabolic Activation: RAT, LIVER, S-9, AROCLOR 1254 (10%), Method: PREINCUBATION inactive; negative | Test System: AMES SALMONELLA TYPHIMURIUM, Strain/Indicator: TA1535, Metabolic Activation: RAT, LIVER, S-9, AROCLOR 1254 (30%), Method: PREINCUBATION inactive; negative | Test System: AMES SALMONELLA TYPHIMURIUM, Strain/Indicator: TA1537, Metabolic Activation: HAMSTER, LIVER, S-9, AROCLOR 1254 (30%), Method: PREINCUBATION inactive; negative | Test System: AMES SALMONELLA TYPHIMURIUM, Strain/Indicator: TA1537, Metabolic Activation: NONE, Method: PREINCUBATION inactive; negative | Test System: AMES SALMONELLA TYPHIMURIUM, Strain/Indicator: TA1537, Metabolic Activation: RAT, LIVER, S-9, AROCLOR 1254 (30%), Method: PREINCUBATION inactive; negative

CC(=O)O[C@H]1[C@H](OC23C=C(C)C4(CC4)C(C)(O)C2C(=O)C(C)(C)C3)O[C@H](CO)[C@@H](OC(=O)/C=C\c2ccc(O)cc2)[C@@H]1O (stereo partly specified)
active: [1] active; positive | [2] active; positive

CC(C)N1C(=O)c2ccccc2NS1(=O)=O
inactive: Test System: AMES SALMONELLA TYPHIMURIUM, Strain/Indicator: TA97, Metabolic Activation: NONE, Method: STANDARD PLATE inactive; negative | Test System: AMES SALMONELLA TYPHIMURIUM, Strain/Indicator: TA97, Metabolic Activation: RAT, LIVER, S-9, DELOR 103, Method: STANDARD PLATE inactive; negative | [3] inactive; negative | Test System: AMES SALMONELLA TYPHIMURIUM, Strain/Indicator: TA98, Metabolic Activation: RAT, LIVER, S-9, DELOR 103, Method: STANDARD PLATE inactive; negative | [4] inactive; negative | Test System: AMES SALMONELLA TYPHIMURIUM, Strain/Indicator: TA100, Metabolic Activation: RAT, LIVER, S-9, DELOR 103, Method: STANDARD PLATE inactive; negative | Test System: AMES SALMONELLA TYPHIMURIUM, Strain/Indicator: TA1535, Metabolic Activation: NONE, Method: STANDARD PLATE inactive; negative | Test System: AMES SALMONELLA TYPHIMURIUM, Strain/Indicator: TA1535, Metabolic Activation: RAT, LIVER, S-9, DELOR 103, Method: STANDARD PLATE inactive; negative | Test System: AMES SALMONELLA TYPHIMURIUM, Strain/Indicator: TA1538, Metabolic Activation: NONE, Method: STANDARD PLATE inactive; negative | Test System: AMES SALMONELLA TYPHIMURIUM, Strain/Indicator: TA1538, Metabolic Activation: RAT, LIVER, S-9, DELOR 103, Method: STANDARD PLATE inactive; negative

CC(=O)Oc1ccc(CO)cc1
inactive: [4] inactive; negative

Cc1ccccc1N=Nc1ccc(N=Nc2c(O)ccc3ccccc23)c(C)c1
active: [5] active; positive
inactive: [3] inactive; negative | [4] inactive; negative

[Pt+2].[S-]CCCCl.[S-]CCCCl
inactive: Test System: AMES SALMONELLA TYPHIMURIUM, Strain/Indicator: TA92, Metabolic Activation: NONE, Method: STANDARD PLATE inactive; negative | [3] inactive; negative
active: [4] active; positive | Test System: AMES SALMONELLA TYPHIMURIUM, Strain/Indicator: TA2410, Metabolic Activation: NONE, Method: STANDARD PLATE active; positive

Nc1ccc(-c2ccc(N)cc2Cl)c(Cl)c1
active: [5] active; positive | Test System: AMES SALMONELLA TYPHIMURIUM, Strain/Indicator: TA98, Metabolic Activation: NONE, Method: PREINCUBATION (PRIVAL METHOD) active; positive | Test System: UDS HUMAN CELLS, Strain/Indicator: THY INCORP (NON-S-PHASE), Metabolic Activation: RAT, LIVER, S-9, PHENOBARBITAL, Method: LIQUID SCINTILLATION COUNTING active; positive
